Holding throughout (type): cell-based
Experiment [1] has as its system A431 cells. The experiment can be described thus: In vitro tumor cell proliferation assay (Cell Titer-Glo) in A431 cells. The note with it: Homo sapiens, A-431, 72 h, A431 human epidermoid carcinoma overexpressing HER1; 72 hours exposure; read-out: IC50, activities in A431 cell lines. The procedure, abridged:
(§1)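 Viability after 72 h drug exposure at 37 °C was read as CellTiter-Glo ATP luminescence, giving IC50. Cells (2.5×10^3/well, RPMI + 10% FBS) were compound-treated one day post-seeding, 0.1% DMSO final: A431 overexpresses HER1, N87 overexpresses HER2 and HER1.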

Experiment [2] has as its system N87. The experiment can be described thus: In vitro tumor cell proliferation assay (Cell Titer-Glo) in N87 cells. The settings on record: N87 human gastric carcinoma overexpressing HER2 and HER1; 72 hours exposure; read-out: IC50, activities in N87 cell lines. The procedure, abridged:
as §1

In experiment [3] the test system is H1975 cells. The experiment can be described thus: In vitro tumor cell proliferation assay (Cell Titer-Glo) in H1975 cells. The settings on record: NCI-H1975; H1975 human NSCLC expressing mutant HER1 (L858R,T790M); 72 hours exposure; read-out: IC50, activities in H 1975 cell lines. A digest of the protocol:
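After 72 h compound exposure at 37° C (top 10 uM down to 64 pM, 0.1% DMSO), viability of EGFR L858R/T790M-mutant H1975 cells was read as ATP luminescence.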

Bounds are passed on as bounds.

Consider `CC(C)N(C/C=C/C(=O)N1CCc2c(sc3ncnc(Nc4cccc(Br)c4)c23)C1)C(C)C` [Example 208, N-(3-bromophenyl)-7-[(2E)-4-(diisopropylamino)but-2-enoyl]-5,6,7,8-tetrahydropyrido [4′,3:4,5]thieno[2,3-d]pyrimidin-4-amine], for which the IC50 in experiment [1] was 200 to 1000 nM; in experiment [2], less than 200 nM; in experiment [3], 200 to 1000 nM.

`CN1CCN(C/C=C/C(=O)N2CCc3c(sc4ncnc(Nc5ccc(OCc6ccccn6)c(Cl)c5)c34)C2)CC1` [Example 5, N-[3-chloro-4-(pyridin-2-ylmethoxy)phenyl]-7-[(2E)-4-(4-methylpiperazin-1-yl)but-2-enoyl]-5,6,7,8-tetrahydropyrido[4′,3′:4,5]thieno[2,3-d]pyrimidin-4-amine]: the IC50 in experiment [1] is less than 200 nM; in experiment [2], less than 200 nM; in experiment [3], 1000 to 10000 nM.

For `O=C(C#CCCN1CCCCC1)N1CCc2c(sc3ncnc(Nc4ccc(F)c(Cl)c4)c23)C1` [Example 140, N-(3-chloro-4-fluorophenyl)-7-(5-piperidin-1-ylpent-2-ynoyl)-5,6,7,8-tetrahydropyrido [4′,3′:4,5]thieno[2,3-d]pyrimidin-4-amine], the IC50 is 200 to 1000 nM in experiment [1], less than 200 nM in experiment [2] and 200 to 1000 nM in experiment [3].

For the molecule `CCN(C)C/C=C/C(=O)N1CCc2c(sc3ncnc(Nc4cccc(Br)c4)c23)C1` [Example 186, N-(3-bromophenyl)-7-{(2E)-4-[ethyl(methyl)amino]but-2-enoyl}-5,6,7,8-tetrahydropyrido [4′,3′:4,5]thieno[2,3-d]pyrimidin-4-amine], the half-maximal inhibitory concentration (IC50) was 200 to 1000 nM in experiment [1], less than 200 nM in experiment [2] and 200 to 1000 nM in experiment [3].

For the molecule `O=C(/C=C/CN1CCCCC1)N1CCc2c(sc3ncnc(Nc4ccc5c(cnn5Cc5ccccc5)c4)c23)C1` [Example 104, N-(1-benzyl-1H-indazol-5-yl)-7-[(2E)-4-piperidin-1-ylbut-2-enoyl]-5,6,7,8-tetrahydropyrido [4′,3′:4,5]thieno[2,3-d]pyrimidin-4-amine], the IC50 in experiment [1] is 200 to 1000 nM; in experiment [2] it was less than 200 nM; in experiment [3], 200 to 1000 nM.

Regarding `CCN(CC)C/C=C/C(=O)N1CCc2c(sc3ncnc(Nc4ccc5c(cnn5Cc5ccccc5)c4)c23)C1` [Example 95, N-(1-benzyl-1H-indazol-5-yl)-7-[(2E)-4-(diethylamino)but-2-enoyl]-5,6,7,8-tetrahydropyrido [4′,3′:4,5]thieno[2,3-d]pyrimidin-4-amine], the values for the IC50 in experiment [1], in experiment [2] and in experiment [3] were 200 to 1000 nM, less than 200 nM and 200 to 1000 nM, respectively.

As for `O=C(/C=C/CN1CCOCC1)N1CCc2c(sc3ncnc(Nc4ccc(OCc5cnccn5)c(Cl)c4)c23)C1` [Example 80, N-[3-chloro-4-(pyrazin-2-ylmethoxy)phenyl]-7-[(2E)-4-morpholin-4-ylbut-2-enoyl]-5,6,7,8-tetrahydropyrido [4′3′:4,5]thieno[2,3-d]pyrimidin-4-amine], the IC50 in experiment [1] was 1000 to 10000 nM; in experiment [2] it was less than 200 nM; in experiment [3], 1000 to 10000 nM.

With `O=C(/C=C/CN1CCOCC1)N1CCc2c(sc3ncnc(Nc4ccc5c(cnn5Cc5ccccn5)c4)c23)C1` [Example 113, 7-[(2E)-4-morpholin-4-ylbut-2-enoyl]-N-[1-(pyridin-2-ylmethyl)-1H-indazol-5-yl]-5,6,7,8-tetrahydropyrido [4′,3′:4,5]thieno[2,3-d]pyrimidin-4-amine], the IC50 in experiment [1] is 200 to 1000 nM; in experiment [2], less than 200 nM; in experiment [3], 200 to 1000 nM.

With `CC1CC(C)CN(C/C=C/C(=O)N2CCc3c(sc4ncnc(Nc5ccc(OCc6ccccn6)c(Cl)c5)c34)C2)C1` (stereo not drawn) [Example 46, N-[3-chloro-4-(pyridin-2-ylmethoxy)phenyl]-7-[(2E)-4-(3,5-dimethylpiperidin-1-yl)but-2-enoyl]-5,6,7,8-tetrahydropyrido [4′,3′:4,5]thieno[2,3-d]pyrimidin-4-amine], the IC50 is 200 to 1000 nM in experiment [1], less than 200 nM in experiment [2] and 200 to 1000 nM in experiment [3].

For `CN(C)C/C=C/C(=O)N1CCc2c(sc3ncnc(Nc4cc(F)cc(Cl)c4)c23)C1` [Example 181, N-(3-chloro-5-fluorophenyl)-7-[(2E)-4-(dimethylamino)but-2-enoyl]-5,6,7,8-tetrahydropyrido [4′,3′:4,5]thieno[2,3-d]pyrimidin-4-amine], the IC50 in experiment [1] is 1000 to 10000 nM; in experiment [2], less than 200 nM; in experiment [3], 1000 to 10000 nM.

As to `CN(C)C/C=C/C(=O)N1CCc2c(sc3ncnc(Nc4ccc(Cl)c(F)c4)c23)C1` [Example 180, N-(4-chloro-3-fluorophenyl)-7-[(2E)-4-(dimethylamino)but-2-enoyl]-5,6,7,8-tetrahydropyrido [4′,3′:4,5]thieno[2,3-d]pyrimidin-4-amine], the IC50 in experiment [1] is 200 to 1000 nM; in experiment [2] it was less than 200 nM; in experiment [3], 1000 to 10000 nM.

As to `C=C(CN(CC)CC)C(=O)N1CCc2c(sc3ncnc(Nc4ccc(OCc5cccc(F)c5)c(Cl)c4)c23)C1` [Example 149, N-{3-chloro-4-[(3-fluorobenzyl)oxy]phenyl}-7-{2-[(diethylamino)methyl]acryloyl}-5,6,7,8-tetrahydropyrido [4′,3′:4,5]thieno[2,3-d]pyrimidin-4-amine], the IC50 is 200 to 1000 nM in experiment [1], less than 200 nM in experiment [2] and 200 to 1000 nM in experiment [3].

`CCN(CC)C/C=C/C(=O)N1CCc2c(sc3ncnc(Nc4ccc5c(ccn5Cc5cccc(F)c5)c4)c23)C1` [Example 100, 7-[(2E)-4-(diethylamino)but-2-enoyl]-N-[1-(3-fluorobenzyl)-1H-indol-5-yl]-5,6,7,8-tetrahydropyrido [4′,3′:4,5]thieno[2,3-d]pyrimidin-4-amine]: the IC50 in experiment [1] was 200 to 1000 nM; in experiment [2] it was less than 200 nM; in experiment [3], 200 to 1000 nM.

Take `O=C(/C=C/CN1CCC(N2CCCCC2)CC1)N1CCc2c(sc3ncnc(Nc4ccc(F)c(Cl)c4)c23)C1` [Example 45, 7-[(2E)-4-(1,4′-bipiperidin-1-yl)but-2-enoyl]-N-(3-chloro-4-fluorophenyl)-5,6,7,8-tetrahydropyrido [4′,3′:4,5]thieno[2,3-d]pyrimidin-4-amine]: the IC50 in experiment [1] is 1000 to 10000 nM; in experiment [2] it was less than 200 nM; in experiment [3], 200 to 1000 nM.

Take `CN(C/C=C/C(=O)N1CCc2c(sc3ncnc(Nc4ccc(F)c(Cl)c4)c23)C1)C1CCCCC1` [Example 54, N-(3-chloro-4-fluorophenyl)-7-{(2E)-4-[cyclohexyl(methyl)amino]but-2-enoyl}-5,6,7,8-tetrahydropyrido [4′,3′:4,5]thieno[2,3-d]pyrimidin-4-amine]: the values for the IC50 in experiment [1], in experiment [2] and in experiment [3] were 200 to 1000 nM, less than 200 nM and 200 to 1000 nM, respectively.

As to `CCN(CC)C/C=C/C(=O)N1CCc2c(sc3ncnc(Nc4ccc(OCc5cnccn5)c(Cl)c4)c23)C1` [Example 72, N-[3-chloro-4-(pyrazin-2-ylmethoxy)phenyl]-7-[(2E)-4-(diethylamino)but-2-enoyl]-5,6,7,8-tetrahydropyrido [4′,3′:4,5]thieno[2,3-d]pyrimidin-4-amine], the IC50 was 1000 to 10000 nM in experiment [1], less than 200 nM in experiment [2] and 200 to 1000 nM in experiment [3].

`CC(C)N(C/C=C/C(=O)N1CCc2c(sc3ncnc(Nc4ccc(Cl)c(Cl)c4)c23)C1)C(C)C` [Example 209, N-(3,4-dichlorophenyl)-7-[(2E)-4-(diisopropylamino)but-2-enoyl]-5,6,7,8-tetrahydropyrido [4′,3′:4,5]thieno[2,3-d]pyrimidin-4-amine]: the IC50 in experiment [1] is 200 to 1000 nM; in experiment [2], less than 200 nM; in experiment [3], 200 to 1000 nM.

Turning to `CC(C)N(C)C/C=C/C(=O)N1CCc2c(sc3ncnc(Nc4ccc(OCc5cccnc5)c(Cl)c4)c23)C1` [Example 91, N-[3-chloro-4-(pyridin-3-ylmethoxy)phenyl]-7-{(2E)-4-[isopropyl(methyl)amino]but-2-enoyl}-5,6,7,8-tetrahydropyrido [4′,3′:4,5]thieno[2,3-d]pyrimidin-4-amine], the IC50 was 1000 to 10000 nM in experiment [1], less than 200 nM in experiment [2] and 200 to 1000 nM in experiment [3].

With `CN(C/C=C/C(=O)N1CCc2c(sc3ncnc(Nc4ccc5c(cnn5Cc5ccccc5)c4)c23)C1)C(C)(C)C` [Example 126, N-(1-benzyl-1H-indazol-5-yl)-7-{(2E)-4-[tert-butyl(methyl)amino]but-2-enoyl}-5,6,7,8-tetrahydropyrido [4′,3′:4,5]thieno[2,3-d]pyrimidin-4-amine], the concentration for half-maximal inhibition (IC50) in experiment [1], in experiment [2] and in experiment [3] was less than 200 nM each time.

For the molecule `O=C(/C=C/CN1CCOCC1)N1CCc2c(sc3ncnc(Nc4ccc(OCc5cccc(F)c5)c(Cl)c4)c23)C1` [Example 10, N-{3-chloro-4-[(3-fluorobenzyl)oxy]phenyl}-7-[(2E)-4-morpholin-4-ylbut-2-enoyl]-5,6,7,8-tetrahydropyrido[4′,3′:4,5]thieno[2,3-d]pyrimidin-4-amine], the half-maximal inhibitory concentration (IC50) in experiment [1] is less than 200 nM; in experiment [2], less than 200 nM; in experiment [3], 1000 to 10000 nM.

For the molecule `CCN(C)C/C=C/C(=O)N1CCc2c(sc3ncnc(Nc4ccc(OCc5ccccn5)c(Cl)c4)c23)C1` [Example 49, N-(3-chloro-4-(pyridin-2-ylmethoxy)phenyl]-7-{(2E)-4-[ethyl(methyl)amino]but-2-enoyl}-5,6,7,8-tetrahydropyrido [4′,3′:4,5]thieno[2,3-d]pyrimidin-4-amine], the IC50 in experiment [1] is 200 to 1000 nM; in experiment [2], less than 200 nM; in experiment [3], 200 to 1000 nM.

(Values after US8501755B2, “Tetrahydropyridothienopyrimidine compounds and methods of use thereof” (Bayer Intellectual Property GmbH, priority 2006, dated 2013).)
